{
  "source": "paper PMC6594751",
  "about": "“The mechanism of error induction by the antibiotic viomycin provides insight into the fidelity mechanism of translation” (eLife, 2019)",
  "key": {"[1]": {"test_system": "TC^H84A on 70S ribosomes displaying cognate UUC or near-cognate CUC codon", "assay": "EF-Tu^H84A chase experiments (ternary complex dissociation from the A site)", "format": "biochemical, E. coli", "settings": "37°C", "excerpt": "To address whether viomycin also stabilizes TCs in the A site during initial codon selection, we estimated the rate of dissociation of both cognate and near-cognate tRNAs in TC (TC ^H84A) with a GTPase-deficient mutant of EF-Tu (EF-Tu^H84A). In this EF-Tu mutant, an essential histidine in the G-domain has been replaced by alanine ([Daviter et al., 2003]), but formation of TC ^H84A is unhindered and the mutant TC carries out all partial reactions during initial codon selection, excluding GTP hydrolysis ([Daviter et al., 2003]; [Gromadski and Rodnina, 2004]). Initiated 70S ribosomes with f[^3H]Met-tRNA^fMet in the P site and a cognate (UUC) or near-cognate (CUC) codon in the A site were equilibrated with TC^H84A containing Phe-tRNAGAAPhe and GTP in the presence of varying concentrations of viomycin. TC^H84As were chased from the A site by addition of GTPase proficient TC, containing WT EF-Tu (EF-Tu^WT) and either Phe-tRNAGAAPhe or Leu-tRNAGAGLeu2 , whichever was cognate for the codon in the A site. The dissociation rate for TC^H84A s from the A site, defined as the inverse of the average dissociation time, was then estimated from the rate of f[^3H]Met-Phe or f[^3H]Met-Leu formation (supplementary methods).\n(§1) All experiments were performed at 37°C in HEPES-polymix buffer (95 mM KCl, 5 mM NH4Cl, 0.5 mM CaCl2, 8 mM putrescine, 1 mM spermidine, 5 mM Mg(OAc)2, 1 mM dithioerythritol and 5 mM HEPES pH 7.5). All reaction mixes contained 10 mM phosphoenolpyruvate (PEP), 1 µg/ml pyruvate kinase (PK) and 0.1 µg/ml myokinase (MK). His-tagged initiation factors IF1, IF2 and IF3, elongation factor Ts, and phenylalanine and leucine aminoacyl tRNA-synthetases were purified using nickel-affinity chromatography (HisTrap GE Healthcare). Wild-type elongation factor Tu was prepared as in [Ehrenberg et al. (1990)]. All protein concentrations were determined using the Bradford assay. Ribosomes (E. coli MRE600) and f[^3H]Met-tRNA^fMet were prepared according to [Antoun et al. (2004)]; ribosome concentration was determined spectrophotometrically. XR7 mRNAs with coding sequences AUG-UUC, AUG-CUC, AUG-UAC and AUG-UUA were prepared as in [Borg and Ehrenberg (2015)], see theGV Appendix I for full mRNA sequences. tRNA^Phe was prepared as in [Holm et al. (2016)]. [^3H]Met and [^3H]GTP were from Perkin-Elmer, viomycin was from USP, all other chemicals were from either Merck or Sigma-Aldrich.\nThe wild type tufA gene from E. coli Mg1655 was cloned in the pET21b vector with a C-terminal hexahistidine tag. Using this construct, the Histidine at position 84 was changed to Alanine by following the standard protocol from the QIAGEN site directed mutagenesis kit. Successful mutation was confirmed by DNA sequencing. […]"}, "tRNA selection": {"test_system": "tRNA selection", "set-up": "method as in Marrero et al., 1980", "settings": "ref Marrero et al., 1980; cited from earlier work"}, "mRNA translocation": {"test_system": "mRNA translocation", "settings": "ref Holm et al., 2016; Modolell and Vázquez, 1977; cited from earlier work"}, "[2]": {"test_system": "peptidyl-tRNA in the ribosomal A site", "settings": "ref Holm et al., 2016; Peske et al., 2004; cited from earlier work"}, "[3]": {"test_system": "70S ribosomes displaying cognate (UUC) or near-cognate (CUC) codon in the A site", "assay": "GTP hydrolysis by EF-Tu in ternary complex (initial codon selection), quench-flow", "format": "biochemical, E. coli", "excerpt": "(§2) To study the impact of viomycin on translational accuracy, we designed experiments to measure its effect on the kinetic efficiency ( kcat/KM ) of GTP hydrolysis by EF-Tu and peptide bond formation for both cognate and near-cognate codon-anticodon interactions. A reaction mixture containing varying concentrations of viomycin and Phe-tRNAGAAPhe in TC with EF-Tu·GTP was rapidly mixed in a quench-flow instrument with initiated 70S ribosomes displaying either cognate (UUC) or near-cognate (CUC) codons in the A site. For studying GTP hydrolysis, the TCs contained [^3H]GTP and the 70S ribosomes had non-radioactive fMet-tRNA^fMet in the P site, while for studying peptide bond formation the TCs contained non-radioactive GTP and the 70S ribosomes had f[^3H]Met-tRNA^fMet bound in the P site. The reactions were stopped at different times by addition of formic acid and the relative amounts of the reaction products were analyzed by ion-exchange chromatography ([^3H]GDP) or RP-HPLC (f[^3H]Met-Phe) with on-line radiation detection.\nas §1\nTwo mixtures were prepared. The ribosome mixture contained 70S ribosomes (1.0–2.0 µM), IF1, IF2 and IF3 (2 µM each), fMet-tRNA^fMet(1.5–3.0 µM), mRNA (3 µM), GTP (1 mM) and ATP (1 mM). The TC mixture contained EF-Tu (0.3–0.6 µM), phenylalanine (200 µM), PheRS (0.5 µM), tRNA^Phe (2 µM), viomycin (0–2000 µM), [^3H]GTP (0.3–0.6 µM) and ATP (2 mM). After 15 min incubation at 37°C, equal volumes of the two mixes were rapidly mixed and the reaction quenched at different time points with formic acid (17% final concentration) using a quench-flow instrument (RQF-3 KinTek corp.). After quenching, the samples were centrifuged at 20,800 g. The supernatant, containing the [^3H]GTP and [^3H]GDP was analyzed by anion exchange chromatography with on-line scintillation counting (β-RAM model 4 IN/US systems). A Mono-Q GL column (GE Healthcare) was used and the mobile phase was a multistep gradient of 0–2 M NaCl in 20 mM Tris (pH 7.5).\nReaction rates were estimated by fitting of single exponential functions to the experimental time courses except for the GTP hydrolysis reactions without viomycin on near-cognate codons which were analyzed as in [Johansson et al. (2012)]. kcat/KM values were estimated by fitting of the Michaelis-Menten equation to plots of reaction rates versus concentration. […]"}, "[4]": {"test_system": "70S ribosomes displaying cognate UUC or near-cognate codons CUC, AUC, UAC or UUA in the A site", "assay": "f[^3H]Met-Phe dipeptide formation, quench-flow", "format": "biochemical, E. coli", "excerpt": "as §2\nThe model presented above predicts that viomycin sensitivity ( KInc ) for any codon·anticodon pair depends on the accuracy of initial codon selection as defined by the product of the near-cognate back reaction rate constants q3nc and q4nc (Equations 4 and 5) in the absence as well as presence of viomycin. […] To test this prediction, we measured how the kcat/KM of dipeptide formation varied with viomycin concentration for tRNAGAAPhe reading three additional near-cognate codons (Figure 4A); AUC, UAC or UUA (the underlined base differs from the cognate codon UUC). We quantified the viomycin sensitivity of each codon by estimating its KI value by fitting of Equation 4 to plots of kcat/KM versus viomycin concentration (Figure 4B). We also estimated the accuracies of initial selection by measuring kcat/KM for GTP hydrolysis with the three codons in the absence of viomycin. Both sets of experiments were carried out exactly as described above.\nas §1\nTwo mixtures were prepared. The ribosome mixture contained 70S ribosomes (0.5 µM), IF1, IF2 and IF3 (1 µM each), f[^3H]Met-tRNA^fMet (1 µM), mRNA (2 µM), GTP (1 mM) and ATP (1 mM). The TC mixture contained EF-Tu (1–10 µM), EF-Ts (1 µM), phenylalanine (200 µM), PheRS (0.5 µM), tRNA^Phe (12 µM), viomycin (0–2000 µM), GTP (1 mM) and ATP (1 mM). After 15 min incubation at 37°C, equal volumes of the two mixes were rapidly mixed and the reaction quenched at different time points with formic acid (17% final concentration) using a quench-flow instrument (RQF-3 KinTek corp.). After quenching, the samples were centrifuged at 20,800 g and the supernatant discarded. The pellet was dissolved in 165 µl 0.5 M KOH to cleave the peptides from the tRNA. […]"}, "ribosome": {"test_system": "ribosome", "settings": "ref Holm et al., 2016; cited from earlier work", "excerpt": "From these structures it seems likely that association of viomycin to the ribosome requires bases A1492 and A1493 in their flipped-out conformation and that the presence of viomycin on the ribosome will effectively block the monitoring bases from re ..."}, "[5]": {"settings": "CUC vs UUC, 1 mM viomycin vs absence of viomycin"}},
  "note": "Read-outs that look alike come from different tables or passages of the source.",
  "data": [
    {"substance": "viomycin", "values": [
      {"measurement": "rate of TC^H84A dissociation, cognate, 1 µM viomycin", "setting": "[1]; cognate UUC codon, 1 µM viomycin (1.21 ± 0.088 in the absence of viomycin), pH 7.5", "value": "0.616 ± 0.044", "unit": "s⁻¹"},
      {"measurement": "rate of TC^H84A dissociation, cognate, 10 µM viomycin", "setting": "[1]; cognate UUC codon, 10 µM viomycin (1.21 ± 0.088 in the absence of viomycin), pH 7.5", "value": "0.198 ± 0.0275", "unit": "s⁻¹"},
      {"measurement": "apparent near-cognate TC^H84A dissociation rate, 200 µM viomycin", "setting": "[1]; near-cognate CUC codon, 200 µM viomycin, pH 7.5", "value": "0.209 ± 0.066", "unit": "s⁻¹"},
      {"measurement": "Ki", "setting": "[1]; tRNA^Phe(GAA) reading cognate codon UUC, linear fit of Equation 6 to dissociation mean times (Figure 2B), read-out: KI^c (viomycin concentration at which rate of viomycin rebinding to TC-bound ribosome equals rate of TC dissociation unhindered by rebinding)", "value": "0.0094 ± 0.0033", "unit": "mM"},
      {"measurement": "effect on fidelity of tRNA selection", "setting": "tRNA selection", "value": "impairs the fidelity of tRNA selection"},
      {"measurement": "effect on rate of mRNA translocation", "setting": "mRNA translocation", "value": "reduces the rate of mRNA translocation"},
      {"measurement": "stabilization of peptidyl-tRNA in the ribosomal A site", "setting": "[2]", "value": "strongly stabilize peptidyl-tRNA in the ribosomal A site"},
      {"measurement": "reduction in the accuracy of initial codon selection", "setting": "[3]; [5]", "value": 170, "unit": "fold"},
      {"measurement": "kcat/KM of cognate GTP hydrolysis (average over 0 to 1 mM viomycin)", "setting": "[3]; cognate UUC codon, Phe-tRNA^Phe TC, viomycin 0 to 1 mM, HEPES-polymix pH 7.5, 37°C, error SEM", "value": "4.1e+07 ± 600000", "unit": "M⁻¹ s⁻¹"},
      {"measurement": "effect of viomycin on kcat/KM of cognate GTP hydrolysis", "setting": "[3]; cognate UUC codon, viomycin 0 to 1 mM, 37°C", "value": "did not change with increasing viomycin concentration"},
      {"measurement": "kcat/KM of near-cognate GTP hydrolysis", "setting": "[3]; near-cognate CUC codon, 1 mM viomycin (0.053 ± 0.005 in the absence of viomycin), HEPES-polymix pH 7.5, 37°C, error SEM", "value": "9.2e+06 ± 700000", "unit": "M⁻¹ s⁻¹"},
      {"measurement": "Ki", "setting": "[3]; tRNA^Phe(GAA) reading near-cognate codon CUC, fit of Equation 4 (Figure 1B), 37°C, read-out: KI (viomycin concentration at which accuracy has decreased to two), from GTP hydrolysis", "value": "3.1 ± 0.2", "unit": "mM"},
      {"measurement": "total accuracy", "setting": "[4]; CUC vs UUC, 1 mM viomycin (83,500 ± 8000 without viomycin)", "value": "4.0 ± 0.3"},
      {"measurement": "reduction in total accuracy", "setting": "[4]; [5]", "value": "21,000 fold"},
      {"measurement": "correlation of accuracy of initial selection with viomycin KI", "setting": "[4]; codons CUC, AUC, UAC, UUA (Figure 4C)", "value": "clear correlation between the two"},
      {"measurement": "effect of viomycin on kcat/KM of cognate dipeptide formation", "setting": "[4]; cognate UUC codon, 37°C", "value": "did not change with the addition of viomycin"},
      {"measurement": "kcat/KM of cognate dipeptide formation (average over viomycin concentrations)", "setting": "[4]; cognate UUC codon, HEPES-polymix pH 7.5, 37°C, error SEM", "value": "3.83e+07 ± 700000", "unit": "M⁻¹ s⁻¹"},
      {"measurement": "kcat/KM of near-cognate dipeptide formation", "setting": "[4]; near-cognate CUC codon, 1 mM viomycin (0.0005 ± 0.00004 in the absence of viomycin), HEPES-polymix pH 7.5, 37°C, error SEM", "value": "9.4e+06 ± 800000", "unit": "M⁻¹ s⁻¹"},
      {"measurement": "kcat/KM of near-cognate GTP hydrolysis compared with dipeptide formation", "setting": "[4]; near-cognate CUC codon, all tested viomycin concentrations", "value": "virtually identical"},
      {"measurement": "viomycin concentration required to double the rate at which tRNA^Phe reads the codon CUC", "setting": "[4]; near-cognate CUC, from in vitro experiments", "value": "80 ± 8", "unit": "nM"},
      {"measurement": "proofreading selection by viomycin-bound ribosomes", "setting": "[4]; near-cognate, proofreading accuracy 115 ± 15 in the absence of viomycin", "value": "incapable of performing proofreading selection"},
      {"measurement": "Ki", "setting": "[4]; tRNA^Phe(GAA) reading near-cognate codon AUC (first position mismatch), fit of Equation 4, accuracy of initial selection 2400 ± 120 without viomycin, read-out: KI from dipeptide formation, AUC", "value": "7 ± 0.3", "unit": "mM"},
      {"measurement": "Ki", "setting": "[4]; tRNA^Phe(GAA) reading near-cognate codon CUC, fit of Equation 4 (Figure 1D), 37°C, read-out: KI (viomycin concentration at which accuracy has decreased to two), from dipeptide formation, CUC", "value": "3.3 ± 0.1", "unit": "mM"},
      {"measurement": "Ki", "setting": "[4]; tRNA^Phe(GAA) reading near-cognate codon UAC (second position mismatch), fit of Equation 4, accuracy of initial selection 6400 ± 670 without viomycin, read-out: KI from dipeptide formation, UAC", "value": "29 ± 2.7", "unit": "mM"},
      {"measurement": "Ki", "setting": "[4]; tRNA^Phe(GAA) reading near-cognate codon UUA (third position mismatch), fit of Equation 4, accuracy of initial selection 580 ± 47 without viomycin, read-out: KI from dipeptide formation, UUA", "value": "3.25 ± 0.2", "unit": "mM"},
      {"measurement": "effect of A-site-bound tRNA on affinity of viomycin for the ribosome", "setting": "ribosome", "value": "A-site-bound tRNA greatly increases the affinity of viomycin for the ribosome"}
    ]}
  ]
}
